Source: patent US9133219B2, “Bicyclic antibiotics” (Basilea Pharmaceutica AG, priority 2009, dated 2015)
≈ marks a conversion by molar mass, not a printed value.

Tests used:
Format in all cases: cell-based
Escherichia coli = experiment: Anti-microbial activity assay, MIC by broth microdilution; conditions: Escherichia coli; strain UB1005; read-out: MIC Escherichia coli UB1005
Method: (§1) Anti-Microbial Activity Assay.
(§2) The antibacterial activity of compounds is determined by the minimal inhibitory concentration (MIC) method. MICs for all bacteria except pneumococci and Haemophilus influenzae are obtained by broth microdilution with cation-adjusted Mueller-Hinton broth (CAMHB; BBL), according to CLSI guidelines (National Committee for Clinical Laboratory Standards. 2003. Methods for dilution antimicrobial susceptibility tests for bacteria that grow aerobically, 5th ed.; approved standard M7-A6. National Committee for Clinical Laboratory Standards, Wayne, Pa.), with the following modifications: (i) for pneumococci CAMHB is supplemented with 5% (^v/v) horse serum; (ii) for Haemophilus influenzae CAMHB is supplemented with 5% (^v/v) Fildes enrichment (BBL) (Pankuch, G. A., Hoellman, D. B., Lin, G., Bajaksouzian, S., Jacobs, M. R., and Appelbaum, P. C. 1998. Activity of HMR 3647 compared to those of five agents against Haemophilus influenzae and Moraxella catarrhalis by MIC determination and time-kill assay. Antimicrob. Agents Chemother. 42:3032-3034). Microtiter plates are incubated at 35° C. in ambient air for 20 to 24 h, then inspected using an illuminated microtiter plate reader fitted with a magnifying mirror (MIC 2000; Cooke Laboratory Products, Alexandria, Va.). Compounds of the present invention are tested against several bacteria strains comprising some Acinetobacter baumannii, Enterococcus faecalis, Enterococcus faecitan, Escherichia coli, Haemophilus influenzae, Klebsiella pneumoniae, Pseudomonas aeruginosa, Staphylococcus aureus, Staphylococcus epidermidis and Streptococcus pneumoniae.

Staphylococcus aureus = experiment: as above; conditions: Staphylococcus aureus; strain ATCC29213; read-out: MIC Staphylococcus aureus ATCC29213
Method: as §1, §2

[1] = tested on: Staphylococcus epidermidis; experiment: as above; conditions: Staphylococcus epidermidis; strain ATCC14990
Method: as §1, §2

[2] = tested on: Staphylococcus aureus and/or Staphylococcus epidermidis; experiment: MIC summary statement, staphylococci; conditions: generally, for Staphylococcus aureus and/or Staphylococcus epidermidis
Method: as §1, §2

Streptococcus pneumoniae = experiment: Anti-microbial activity assay, MIC by broth microdilution (CAMHB with 5% horse serum); conditions: Streptococcus pneumoniae; strain ATCC49619; CAMHB with 5% horse serum; read-out: MIC Streptococcus pneumoniae ATCC49619
Method: as §1, §2

[3] = tested on: Staphylococcus aureus and/or Staphylococcus epidermidis and/or Streptococcus pneumoniae and/or Escherichia coli; experiment: MIC summary statement, staphylococci, pneumococci and E. coli; conditions: generally, for S. aureus and/or S. epidermidis and/or S. pneumoniae and/or E. coli; in most case of less than 2 mg/L
Method: as §1, §2

[4] = tested on: Staphylococcus aureus and/or Staphylococcus epidermidis and/or Streptococcus pneumoniae; experiment: MIC summary statement, staphylococci and pneumococci; conditions: generally, for Staphylococcus aureus and/or Staphylococcus epidermidis and/or Streptococcus pneumoniae
Method: as §1, §2

| Structure (SMILES) | MIC (Escherichia coli) [µg/mL] | MIC (Staphylococcus aureus) [µg/mL] | MIC [1] [µg/mL] | MIC [2] [µg/mL] | MIC (Streptococcus pneumoniae) [µg/mL] | MIC [3] [µg/mL] | MIC [4] [µg/mL] |
| --- | --- | --- | --- | --- | --- | --- | --- |
| COc1ccc2ncc(SCCN3CCC(NCc4ccc5c(n4)NC(=O)CO5)CC3)nc2c1 [Example 45, 6-({1-[2-(7-methoxy-quinoxalin-2-ylsulfanyl)-ethyl]-piperidin-4-ylamino}-methyl)-4H-pyrido[3,2-b][1,4]oxazin-3-one] | ≤ 2 | ≤ 2 | ≤ 2 | ≤ 2 | ≤ 2 | ≤ 4 | ≤ 2 |
| COc1ccc2ncc(SCCN3CCC(NC(=O)c4ccc5c(c4)NC(=O)CO5)CC3)nc2c1 [Example 36, 3-oxo-3,4-dihydro-2H-benzo[1,4]oxazine-6-carboxylic acid {1-[2-(7-methoxy-quinoxalin-2-ylsulfanyl)-ethyl]-piperidin-4-yl}-amide] | 4 (≈ 8.1 µM) | ≤ 2 | ≤ 2 | ≤ 2 | ≤ 2 | ≤ 4 | ≤ 2 |
| COc1ccc2ncc(SCCN3CCC(NC(=O)c4cc5c(cc4Cl)SCC(=O)N5)CC3)nc2c1 [Example 37, 7-chloro-3-oxo-3,4-dihydro-2H-benzo[1,4]thiazine-6-carboxylic acid {1-[2-(7-methoxy-quinoxalin-2-ylsulfanyl)-ethyl]-piperidin-4-yl}-amide] | ≤ 2 | ≤ 2 | ≤ 2 | ≤ 2 | ≤ 2 | ≤ 4 | ≤ 2 |
| COc1ccc2ncc(SCCN3CCC(NCc4ccc5c(c4)NC(=O)CS5)CC3)nc2c1 [Example 46, 6-({1-[2-(7-methoxy-quinoxalin-2-ylsulfanyl)-ethyl]-piperidin-4-ylamino}-methyl)-4H-benzo[1,4]thiazin-3-one] | ≤ 2 | ≤ 2 | ≤ 2 | ≤ 2 | ≤ 2 | ≤ 4 | ≤ 2 |
| COc1ccc2ncc(SCCN3CCC(NCc4cc5c(cc4Cl)SCC(=O)N5)CC3)nc2c1 [Example 48, 7-chloro-6-({1-[2-(7-methoxy-quinoxalin-2-ylsulfanyl)-ethyl]-piperidin-4-ylamino}-methyl)-4H-benzo[1,4]thiazin-3-one] | ≤ 2 | ≤ 2 | ≤ 2 | ≤ 2 | ≤ 2 | ≤ 4 | ≤ 2 |
| COc1ccc2ncc(SCCN3CCC(NC(=O)c4ccc5c(c4)NC(=O)CS5)CC3)cc2c1 [Example 53, 3-oxo-3,4-dihydro-2H-benzo[1,4]thiazine-6-carboxylic acid {1-[2-(6-methoxy-quinolin-3-ylsulfanyl)-ethyl]-piperidin-4-yl}-amide] | 4 (≈ 7.86 µM) | ≤ 2 | ≤ 2 | ≤ 2 | ≤ 2 | ≤ 4 | ≤ 2 |
| COc1ccc2ncc(SCCN3CCC(NC(=O)c4cc5c(cc4Cl)SCCN5)CC3)nc2c1 [Example 44, 7-chloro-3,4-dihydro-2H-benzo[1,4]thiazine-6-carboxylic acid {1-[2-(7-methoxy-quinoxalin-2-ylsulfanyl)-ethyl]-piperidin-4-yl}-amide] | 4 (≈ 7.55 µM) | ≤ 2 | ≤ 2 | ≤ 2 | 4 (≈ 7.55 µM) | ≤ 4 | – |
| COc1ccc2ncc(OCCCN3CCC(CNCc4ccc5c(n4)NC(=O)CO5)CC3)nc2c1 [Example 9, 6-[({1-[3-(7-methoxy-quinoxalin-2-yloxy)-propyl]-piperidin-4-ylmethyl}-amino)-methyl]-4H-pyrido[3,2-b][1,4]oxazin-3-one] | 4 (≈ 8.12 µM) | ≤ 2 | 4 (≈ 8.12 µM) | ≤ 2 | ≤ 2 | ≤ 4 | ≤ 2 |
| COc1ccc2ncc(SCCN3CCC(NC(=O)c4cc5c(cc4Cl)SCC(=O)N5)CC3)cc2c1 [Example 54, 7-chloro-3-oxo-3,4-dihydro-2H-benzo[1,4]thiazine-6-carboxylic acid {1-[2-(6-methoxy-quinolin-3-ylsulfanyl)-ethyl]-piperidin-4-yl}-amide] | 4 (≈ 7.36 µM) | ≤ 2 | ≤ 2 | ≤ 2 | 4 (≈ 7.36 µM) | ≤ 4 | – |
| COc1ccc2ncc(SCCN3CCC(NCc4cc5c(cc4Cl)SCCN5)CC3)nc2c1 [Example 49, (7-chloro-3,4-dihydro-2H-benzo[1,4]thiazin-6-ylmethyl)-{1-[2-(7-methoxy-quinoxalin-2-ylsulfanyl)-ethyl]-piperidin-4-yl}-amine] | 4 (≈ 7.75 µM) | ≤ 2 | ≤ 2 | ≤ 2 | ≤ 2 | ≤ 4 | ≤ 2 |
| COc1ccc2ncc(SCCN3CCC(NC(=O)c4ccc5c(n4)NC(=O)CS5)CC3)nc2c1 [Example 50, 3-oxo-3,4-dihydro-2H-pyrido[3,2-b][1,4]thiazine-6-carboxylic acid {1-[2-(7-methoxy-quinoxalin-2-ylsulfanyl)-ethyl]-piperidin-4-yl}-amide] | 4 (≈ 7.83 µM) | ≤ 2 | ≤ 2 | ≤ 2 | ≤ 2 | ≤ 4 | ≤ 2 |
| COc1ccc2ncc(SCCN3CCC(NCCSc4cccs4)CC3)nc2c1 [Example 38, {1-[2-(7-methoxy-quinoxalin-2-ylsulfanyl)-ethyl]-piperidin-4-yl}-[2-(thiophen-2-ylsulfanyl)-ethyl]-amine] | 16 (≈ 34.7 µM) | ≤ 2 | ≤ 2 | ≤ 2 | ≤ 2 | – | ≤ 2 |
| COc1ccc2ncc(SCCN3CCC(NC(=O)c4nc5c(cc4Cl)SCC(=O)N5)CC3)nc2c1 [Example 51, 7-chloro-3-oxo-3,4-dihydro-2H-pyrido[3,2-b][1,4]thiazine-6-carboxylic acid {1-[2-(7-methoxy-quinoxalin-2-ylsulfanyl)-ethyl]-piperidin-4-yl}-amide] | 4 (≈ 7.34 µM) | ≤ 2 | ≤ 2 | ≤ 2 | 4 (≈ 7.34 µM) | ≤ 4 | – |
| COc1ccc2ncc(SCCN3CCC(N(C)Cc4ccc5c(c4)OCCO5)CC3)nc2c1 [Example 43, (2,3-dihydro-benzo[1,4]dioxin-6-ylmethyl)-{1-[2-(7-methoxy-quinoxalin-2-ylsulfanyl)-ethyl]-piperidin-4-yl}-methyl-amine] | 16 (≈ 33.3 µM) | ≤ 2 | ≤ 2 | ≤ 2 | ≤ 2 | – | ≤ 2 |
| COc1ccc2ncc(OCC[C@H]3CC[C@H](NC(=O)c4ccc5c(c4)NC(=O)CS5)CC3)cc2n1 [Example 2, 3-oxo-3,4-dihydro-2H-benzo[1,4]thiazine-6-carboxylic acid {trans-4-[2-(6-methoxy-[1,5]naphthyridin-3-yloxy)-ethyl]-cyclohexyl}-amide] | > 32 | ≤ 2 | ≤ 2 | ≤ 2 | ≤ 2 | – | ≤ 2 |
| CCN(Cc1ccc2c(c1)OCCO2)C1CCN(CCSc2cnc3ccc(OC)cc3n2)CC1 [Example 47, (2,3-dihydro-benzo[1,4]dioxin-6-ylmethyl)-ethyl-{1-[2-(7-methoxy-quinoxalin-2-ylsulfanyl)-ethyl]-piperidin-4-yl}-amine] | 32 (≈ 64.7 µM) | ≤ 2 | ≤ 2 | ≤ 2 | ≤ 2 | – | ≤ 2 |
| COc1ccc2ncc(SCCN3CCC(NC(=O)c4ccc5c(n4)NC(=O)CS5)CC3)cc2c1 [Example 55, 3-oxo-3,4-dihydro-2H-pyrido[3,2-b][1,4]thiazine-6-carboxylic acid {1-[2-(6-methoxy-quinolin-3-ylsulfanyl)-ethyl]-piperidin-4-yl}-amide] | 16 (≈ 31.4 µM) | ≤ 2 | ≤ 2 | ≤ 2 | ≤ 2 | – | ≤ 2 |
